Tests used:
[1] = Storage stability of the emulsion (HPLC); assay type: physicochemical; details: for Storage stability: Decomposition reaction rate constant: 40° C., calculated from change with time of remaining rate; for Storage stability: Remaining rate: emulsion stored 4 weeks at 40° C., 40320 min
Description: | Storage stability: | Stored for 4 weeks under a temperature condition of 40° C., and th | remaining rate (%) after the 4 weeks was measured. Further, from the | change with time of the remaining rate, the decomposition reaction rate | constant was calculated. The stability during the preparation and the remaining rate in the storage stability was measured by a separation quantitative analysis by means of high performance liquid chromatography, and the ratio of the measured amount relative to the amount at the initiation of the test was taken as the remaining rate.

[2] = Stability of the PG analogue during the preparation of the emulsion (HPLC); assay type: physicochemical; details: lipid emulsion prepared at 90° C., final concentration 5 μg/ml
Description: To 500 μg of the PG analogue of the formula (2) of the present invention produced as described above, 10 g of purified soybean oil and 1.2 g of purified yolk lecitin were added, and the mixture was melted under heating at 90° C. by means of a homogenizer at 90° C. Then, 2.5 g of glycerol and 90 ml of distilled water for injection were added thereto, followed by rough emulsification by means of a homogenizer at […]. The product is then emulsified by means of a manton gaulin type homogenizer to obtain an emulsion having a final concentration of 5 μg/ml.
The stability of the PG analogue of the present invention during the preparation of the emulsion and the storage stability of the emulsion were measured, and the results are shown in Table 3.
The stability during the preparation and the remaining rate in the storage stability was measured by a separation quantitative analysis by means of high performance liquid chromatography, and the ratio of the measured amount relative to the amount at the initiation of the test was taken as the remaining rate.

platelet aggregation = assay: Platelet aggregation inhibiting effect, ADP-induced, platelet rich plasma; assay type: cell-based; details: 20 μM ADP, relative to physiological saline
Description: Further, the platelet aggregation inhibiting effects were measured as follows, and the results are shown also in Table 3.
Using sodium citrate (3.8%), peripheral blood was collected (blood 9, sodium citrate 1). This peripheral blood was subjected to centrifugal separation at 1000 rpm for 10 minutes to obtain a platelet rich plasma, and the rest was subjected to centrifugal separation at 3000 rpm for 20 minutes to obtain a plate poor plasma. To 225 μl of the platelet rich plasma, 50 μl of a test sample was added. One minute later, platelet aggregation was induced with 20 μMADP solution 25, whereupon the aggregation inhibitory rate (%) was calculated based on the aggregation rate when a physiological saline solution was added instead of the test sample, being rated as 100%.

[3] = system: human platelet aggregation; details: Table 1(b), activity of PGE1 rated 100, cited from earlier work; for Inhibitory effects against human platelet aggregation (relative activity): (no incubation stated)
[4] = 1.6% BSA-saline solution, mean ± SE, n = 4-7, cited from earlier work

SMILES | Storage stability: Decomposition reaction rate constant [1] | Storage stability: Remaining rate [1] | Stability during the preparation [2] | Platelet aggregation inhibitory effects (platelet aggregation) | Inhibitory effects against human platelet aggregation (relative activity) [3] | Inhibitory effects against human platelet aggregation (relative activity), after incubating in human serum for 20 min [3] | % of PGE1 (or ester) liberated from LM, 1 min incubation [4] | % of PGE1 (or ester) liberated from LM, 10 min incubation [4]
CCCCOC(=O)CCCCCCC1=C(OC(C)=O)C[C@@H](O)[C@@H]1/C=C/[C@@H](O)C[C@@H](C)CCCC [Example 1, butyl 9-actoxy-11α,15S-dihyroxy-17S,20-dimethylprosta-8-13E-diene-1-oate] | 6.20 d^-1 × 10^3 | 84.8% | 75.6% | 37% |  |  |  | 
CCCCC[C@H](O)/C=C/[C@@H]1C(CCCCCCC(=O)OC)=C(OC(C)=O)C[C@H]1O [Example 2, methyl 9-acetoxy-11α,15S-dihydroxyprosta-9,13E-diene-1-oate] | 11.8 d^-1 × 10^3 | 72.7% | 70.4% | 100% |  |  |  | 
CCCCC[C@H](O)/C=C/[C@@H]1C(CCCCCCC(=O)OCCCC)=C(OC(C)=O)C[C@H]1O [Example 3, butyl 9-acetoxy-11α,15S-dihydroxyprosta-8,13E-diene-1-oate] | 8.30 d^-1 × 10^3 | 80.1% | 72.1% | 93% |  |  |  | 
CCCC[C@H](C)C[C@H](O)/C=C/[C@@H]1C(CCCCCCC(=O)OC)=C(OC(C)=O)C[C@H]1O [Example 4, methyl 9-acetoxy-11α,15S-dihyroxy-17S,20-dimethylprosta-8,13E-diene-1-oate] | 8.87 d^-1 × 10^3 | 77.9% | 68.3% | 44% |  |  |  | 
CCCCC[C@H](O)/C=C/[C@H]1[C@H](O)CC(=O)[C@@H]1CCCCCCC(=O)OCCCC [PGE1 butyl ester] |  |  |  |  | 29 | 89 | 60.5 ± 4.0% | 65.3 ± 5.6%
CCCCC[C@H](O)/C=C/[C@H]1[C@H](O)CC(=O)[C@@H]1CCCCCCC(=O)OCC [PGE1 ethyl ester] |  |  |  |  | 20 | 28 | 82.0 ± 8.8% | 125.4 ± 11.7%
CCCCC[C@H](O)/C=C/[C@H]1[C@H](O)CC(=O)[C@@H]1CCCCCCC(=O)OC [PGE1 methyl ester] |  |  |  |  | 23 | 51 | 82.5 ± 3.8% | 80.4 ± 2.9%
CCCCCCCCOC(=O)CCCCCC[C@H]1C(=O)C[C@@H](O)[C@@H]1/C=C/[C@@H](O)CCCCC [PGE1 octyl ester] |  |  |  |  |  | 4 |  | 
CCCCC[C@H](O)/C=C/[C@H]1[C@H](O)CC(=O)[C@@H]1CCCCCCC(=O)O [PGE1] | 113 d^-1 × 10^3 | 4.6% | 43.9% | 55% |  |  |  | 
